This is an account of results in patent publication US20210113598A1, “Combination of MIDH1 Inhibitors and DNA Hypomethylating Agents (HMA)” (Deutsches Krebsforschungszentrum (DKFZ) Stiftung des …, priority 2017, published 2021).

The subject of assay [1] is human IDH1 mutated AML. The assay can be described thus: Transplantation and treatment of mice (PDX model of IDH1 mutated AML). Particulars: for leukemic cells in peripheral blood: monotherapy, week 4 until end of treatment at week 12, Compound A1 150 mg/kg p.o. once daily, azacitidine 1 mg/kg s.c. days 1-5.
Protocol: Leukemic cells from an AML patient with mutated DH1, NPM1, FLT3-TKD and NRAS were xenografted in immunocompromised mice. One million patient-derived AML cells collected from bone marrow and spleen of leukemic mice were injected intravenously in the tail vein of sublethally (3 Gy) irradiated NSG mice. […] The proportion of leukemic cells in peripheral blood of mice was measured with a human-specific CD45 antibody by tail vein bleeds and FACS analysis. The control groups were treated with either vehicle, Compound A1 150 mg/kg once daily p.o. continuously, or azacitidine 1 mg/kg once daily s.c. days 1-5, repeated once after 28 days. The test groups were treated with Compound A1 and azacitidine in the doses mentioned above either starting both drugs on day 1 (parallel group) or starting azacitidine on day 1 but Compound A1 on day 6 (sequential group).
Assay [2] relates to human IDH1 mutated AML cells. Nature of the assay: Clonogenic progenitor (colony formation) assay, IDH1 mutated AML patient cells. It counts as cell-based. Particulars: Compound A1 alone. The protocol: (§1) Colony-forming cell (CFC) units were assayed in methylcellulose (Methocult H4100; StemCell Technologies Inc.) supplemented with 10 ng/mL IL3, 10 ng/mL GM-CSF, 50 ng/mL SCF, 50 ng/mL FLT3-ligand and 3 U/mL EPO (PeproTech). […] of Compound A1 was added in combination with increasing concentrations of Azacytidine to methylcellulose containing 10exp5 human mononuclear cells and were plated in duplicate. Colonies were evaluated microscopically 10 to 14 days after plating by standard criteria. Graphs was plotted as proportion of colonies relative to vehicle treated cells.

The next assay deals with IDH1 wildtype AML cells. Nature of the assay: Clonogenic progenitor (colony formation) assay, IDH1 wildtype AML patient cells. The class given is cell-based, human. Particulars: Compound A1 alone. The protocol: as §1
The test system of assay [3] is human IDH1 mutated AML. Particulars: background statement, oral; cited from earlier work.

In general, IC50 refers to the concentration needed to halve the response being measured.

In the case of `Nc1ncn([C@@H]2O[C@H](CO)[C@@H](O)[C@H]2O)c(=O)n1` [azacitidine, 5-azacytidine, reference compound], the “leukemic cells in peripheral blood” value in the assay on human IDH1 mutated AML [1] is given as “constantly increased”.
Regarding `C[C@H]1C[C@@H](n2c(Nc3ccc(OC(F)(F)F)cc3)nc3cc(CCC(=O)O)ccc32)CC(C)(C)C1` [Compound A1, 3-(2-{[4-(trifluoromethoxy)phenyl]amino}-1-[(1R,5R)-3,3,5-trimethylcyclohexyl]-1H-benzimidazol-5-yl)propanoic acid], in assay [2], the IC50 amounted to 100 nM. Also, in the assay with IDH1 wildtype AML cells, the colony formation entry is given as “not affected”. In addition, the “anti-leukemic activity in PDX models of IDH1 mutant AML in vivo” value with human IDH1 mutated AML [3] is given as “strong anti-leukemic activity”. Further, the “leukemia in week 20” value with human IDH1 mutated AML [1] (Compound A1 alone, 8 weeks after stopping the treatment) is given as “relapsed”. Besides, in the assay with human IDH1 mutated AML [1], the “leukemic cells in peripheral blood” value is given as “declined”.
